Test: Drug interaction of sibutramine, clopidogrel, or chlorzoxazone with sauchinone in mice (plasma pharmacokinetics)
Conditions: for CL/F / Tmax / half-life / AUC: male, ICR, mouse, in vivo; for AUC: plasma, 1 mg/kg sibutramine, 10 mg/kg clopidogrel or 10 mg/kg chlorzoxazone
[1] = mice, drug with sauchinone versus drug alone, decrease
[2] = mice, drug with sauchinone versus drug alone, increase

Description: For analysis of sibutramine, a mobile phase was made, consisting of 10 mM ammonium acetate adjusted to pH 4 with acetic acid: acetonitrile (94:6, v/v) and was eluted at 0.2 mL/min. […] Other parameters of mass spectrometers were the same as those used for analysis of metabolites of CYP substrates.
Male ICR mice (5 weeks old, weight of 20–25 g) were purchased from the Charles River Company Korea (Orient, Seoul, Korea). […] They were provided free access to food and water. These mice were allowed to acclimate to these conditions for three days prior to inclusion in the experiments.
Surgical procedures for mice were conducted under tiletamine HCl and zolazepam HCl anesthesia by intramuscular injection. The carotid artery (for blood sampling) cannulation was carried out using catheters (BASi, West Lafayette, IN, USA). Drug administration and blood sampling were performed at 5 h after surgery [55]. […] Other procedures were the same as those used for the sibutramine pharmacokinetic study.
AUC was calculated using the trapezoidal rule method. Standard methods [56] were used to calculate pharmacokinetic parameters using non-compartmental analysis (WinNonlin 2.1; Pharmasight Corp., Mountain View, CA, USA). Cmax and Tmax were read reversibly from extrapolated data.

**Q.** For `CC(C)CC(N(C)C)C1(c2ccc(Cl)cc2)CCC1` (stereo not drawn) [Sibutramine, sibutramine], which CL/F is on record?
**A.** 0.253 ± 0.0208 mL/min/kg

**Q.** And the Tmax?
**A.** 0.25 h

**Q.** And the half-life?
**A.** 3.28 ± 0.598 h

**Q.** And the CL/F (po)?
**A.** 0.205 ± 0.0186 mL/min/kg

**Q.** What about the Tmax (po) of the same molecule?
**A.** 0.25 h

**Q.** And the half-life (po)?
**A.** 2.75 ± 0.53 h

**Q.** And the AUC (po, mice, with sauchinone (100 mg/kg oral, 30 min before))?
**A.** 82000 ng·h/mL

**Q.** And the AUC (po, mice, without sauchinone (vehicle), oral administration per Table 3)?
**A.** 66300 ng·h/mL

**Q.** What about the “CL/F slower with sauchinone than drug alone (by %)” value [1] of the same molecule?
**A.** 19.0%

**Q.** What about the “t1/2 smaller with sauchinone than drug alone (by %)” value [1] of the same molecule?
**A.** 16.2%

**Q.** What about the “AUC greater with sauchinone than drug alone (by %)” value [2] of the same molecule?
**A.** 23.6%

**Q.** What about the “Cmax higher with sauchinone than drug alone (by %)” value [2] of the same molecule?
**A.** 41.5%

Reference: article PMC6017976, “Enzyme Kinetics and Molecular Docking Studies on Cytochrome 2B6, 2C19, 2E1, and 3A4 Activities by Sauchinone” (Molecules : A Journal of Synthetic Chemistry and Natural …, 2018)
